A word on the melting point: it is the temperature, or range, at which the solid turns liquid. The molecule `c1ccc2c(Nc3ccc4[nH]ncc4c3)nc(-c3ccc4c(c3)CCO4)nc2c1` [Example 9, 2-(2,3-dihydro-1-benzofuran-5-yl)-N-(1H-indazol-5-yl)-4-quinazolinamine] registered a melting point of 267 to 272 °C.

Values taken from patent US7645878B2, “Process for preparing quinazoline Rho-kinase inhibitors and intermediates thereof” (Bayer Healthcare LLC, priority 2002, dated 2010).
